{"source": "patent EP0212822A1", "about": "“A composition containing a plant growth regulator and an alkanol and a method of using the same” (ICI AMERICAS INC., priority 1985, dated 1987)", "key": {"[1]": {"test_system": "Water Oak", "assay": "Trunk injection, holes at 8 inch intervals, Retardation and Uniformity Ratings", "assay_type": "in vivo, Quercus nigra (Water Oak)", "design": "key to Uniformity Rating (U): 0 = no effect from PGR; 1 = poor; 2 = fair; 3 = acceptable; 4 = very good; 5 = excellent; key to Retardation Rating (R): 0 = no retardataion; 1 = 1-20% retardation; 2 = 21-40% retardation; 3 = 41-60% retardation; 4 = 61-80% retardation; 5 = 81-100% retardation", "conditions": "75 ml/hole", "protocol": "(§1) The examples which follow exemplify the improvements obtained by this invention. However, these examples are not intended to limit the scope of the invention. In Examples 1-41, the subject trees were injected at a distance approximately one foot from the soil line by drilling 7/32 inch diameter holes to a 2 inch depth at a 30-45° angle tangential to the trunk with a pressure injector (150 psi) purchased from the Asplundh Tree Expert Co., Company No. 346-3502. The results are expressed in terms of Retardation and Uniformity Ratings. The Retardation rating scale is as follows: • 0 = no retardataion • 1 = 1-20% retardation • 2 = 21-40% retardation • 3 = 41-60% retardation • 4 = 61-80% retardation • 5 = 81-100% retardation\n(§2) The Uniformity Rating is a measure of the consistency of response to the treatment between different branches of the tree. The Uniformity scale employed is as follows: • 0 = no effect from PGR • 1 = poor • 2 = fair • 3 = acceptable • 4 = very good • 5 = excellent\n10 (0.034 moles), 20 (0.068 moles) and 40 grams (0.136 moles) of (2RS, 3RS)-1-(4-chlorophenyl)-4,4-dimethyl-2-1,2,4-triazol-1-yl)pentan-3-ol (PGR) was dissolved in 1,1 and 1 liter, respectively, of methanol at room temperature and was stirred until the solution was clear, approximately 20 to 60 minutes. In these examples, the injection holes were placed at approximate 8 inch intervals."}, "[2]": {"assay": "Absorption kinetics: binding of 14C-labelled compound to sawdust", "assay_type": "physicochemical, Betula pendula-Roth (Birch)", "conditions": "for µg in solution: 2 gm sawdust, 20 ml water, 10 mg/l 14C (II)", "protocol": "This example illustrates the binding (absorption) properties of the PGR of this invention to wood of the-conducting tissue of Betula pendula-Roth (Birch). The compounds of this invention preferably show partial and reversible binding which enhances the slow release effect by initial precipitation in the trunk. Sawdust samples were obtained from the outer wood of freshly cut, debarked logs. 2 gm samples of sawdust were shaken with 20 ml water containing ^14C triazole-labelled (II) at a concentration of 10 mg 1^-1. At intervals, the aqueous phase was subsampled, and the concentration of (II) determined by scintillation counting. A decrease in concentration reflects binding to the wood, expressed as kd (ratio of chemical bound to wood:chemical in solution)."}, "[3]": {"test_system": "Willow Oak", "assay": "Trunk injection, holes at 4 inch intervals, Retardation and Uniformity Ratings", "assay_type": "in vivo, Quercus phellos (Willow Oak)", "design": "key to Uniformity Rating (U): 0 = no effect from PGR; 1 = poor; 2 = fair; 3 = acceptable; 4 = very good; 5 = excellent", "conditions": "38 ml/hole", "protocol": "as §1, §2\n10 (0.034 moles), 20 (0.068 moles) and 40 grams (0.136 moles) of (2RS, 3RS)-1-(4-chlorophenyl)-4,4-dimethyl-2-l,2,4-triazol-l-yl)pentan-3-ol (PGR) were dissolved in 1,1 and 1 liter, respectively, of methanol at room temperature and was stirred until the solution was clear, approximately 20 to 60 minutes. In these examples, the injection holes were placed at approximate 4 inch intervals."}, "[4]": {"conditions": "week 24, 10 g PGR in 1 liter methanol, listed as 7, 10 injection holes, 750 ml per tree"}, "[5]": {"conditions": "week 24, 10 g PGR in 1 liter methanol, listed as 8, 10 injection holes, 750 ml per tree"}, "[6]": {"conditions": "week 24, 10 g PGR in 1 liter methanol, listed as 9, 6 injection holes, 450 ml per tree"}, "[7]": {"conditions": "week 24, 10 g PGR in 1 liter methanol, listed as 10, 6 injection holes, 450 ml per tree"}, "[8]": {"conditions": "week 24, 20 g PGR in 1 liter methanol, listed as 11"}, "[9]": {"conditions": "week 24, 20 g PGR in 1 liter methanol, listed as 12"}, "[10]": {"conditions": "week 24, 20 g PGR in 1 liter methanol, listed as 13"}, "[11]": {"conditions": "week 24, 40 g PGR in 1 liter methanol, listed as 15, 7 injection holes, 525 ml per tree"}, "[12]": {"conditions": "week 24, 40 g PGR in 1 liter methanol, listed as 16, 10 injection holes, 750 ml per tree"}, "[13]": {"conditions": "week 24, 40 g PGR in 1 liter methanol, listed as 17, 6 injection holes, 450 ml per tree"}, "[14]": {"conditions": "week 56, 10 g PGR in 1 liter methanol, listed as 7, 10 injection holes, 750 ml per tree"}, "[15]": {"conditions": "week 56, 10 g PGR in 1 liter methanol, listed as 8, 10 injection holes, 750 ml per tree"}, "[16]": {"conditions": "week 56, 10 g PGR in 1 liter methanol, listed as 9, 6 injection holes, 450 ml per tree"}, "[17]": {"conditions": "week 56, 10 g PGR in 1 liter methanol, listed as 10, 6 injection holes, 450 ml per tree"}, "[18]": {"conditions": "week 56, 20 g PGR in 1 liter methanol, listed as 11"}, "[19]": {"conditions": "week 56, 20 g PGR in 1 liter methanol, listed as 12"}, "[20]": {"conditions": "week 56, 20 g PGR in 1 liter methanol, listed as 13"}, "[21]": {"conditions": "week 56, 40 g PGR in 1 liter methanol, listed as 15, 7 injection holes, 525 ml per tree"}, "[22]": {"conditions": "week 56, 40 g PGR in 1 liter methanol, listed as 16, 10 injection holes, 750 ml per tree"}, "[23]": {"conditions": "week 56, 40 g PGR in 1 liter methanol, listed as 17, 6 injection holes, 450 ml per tree"}, "[24]": {"conditions": "week 24, 20 g PGR in 1 liter methanol"}, "[25]": {"conditions": "week 24, 40 g PGR in 1 liter methanol"}, "[26]": {"conditions": "week 56, 20 g PGR in 1 liter methanol"}, "[27]": {"conditions": "week 56, 40 g PGR in 1 liter methanol"}}}
{"smiles": "CC(C)(C)[C@@H](O)[C@@H](Cc1ccc(Cl)cc1)n1cncn1", "note": "(racemic) [Formula (II), (2RS,3RS)-1-(4-chlorophenyl-4,4-dimethyl-2-1,2,4-triazol-1-yl)pentan-3-ol]", "values": [{"measurement": "Retardation Rating (R)", "setting": "[1]; [4]", "result": "2 (2 = 21-40% retardation)"}, {"measurement": "Uniformity Rating (U)", "setting": "[1]; [4]", "result": 3}, {"measurement": "Retardation Rating (R)", "setting": "[1]; [5]", "result": "3 (3 = 41-60% retardation)"}, {"measurement": "Uniformity Rating (U)", "setting": "[1]; [5]", "result": 3}, {"measurement": "Retardation Rating (R)", "setting": "[1]; [6]", "result": "3 (3 = 41-60% retardation)"}, {"measurement": "Uniformity Rating (U)", "setting": "[1]; [6]", "result": 3}, {"measurement": "Retardation Rating (R)", "setting": "[1]; [7]", "result": "5 (5 = 81-100% retardation)"}, {"measurement": "Uniformity Rating (U)", "setting": "[1]; [7]", "result": 5}, {"measurement": "Retardation Rating (R)", "setting": "[1]; [8]", "result": "2 (2 = 21-40% retardation)"}, {"measurement": "Uniformity Rating (U)", "setting": "[1]; [8]", "result": 3}, {"measurement": "Retardation Rating (R)", "setting": "[1]; [9]", "result": "5 (5 = 81-100% retardation)"}, {"measurement": "Uniformity Rating (U)", "setting": "[1]; [9]", "result": 5}, {"measurement": "Retardation Rating (R)", "setting": "[1]; [10]", "result": "4 (4 = 61-80% retardation)"}, {"measurement": "Uniformity Rating (U)", "setting": "[1]; [10]", "result": 4}, {"measurement": "Retardation Rating (R)", "setting": "[1]; [11]", "result": "1 (1 = 1-20% retardation)"}, {"measurement": "Uniformity Rating (U)", "setting": "[1]; [11]", "result": 1}, {"measurement": "Retardation Rating (R)", "setting": "[1]; [12]", "result": 0}, {"measurement": "Uniformity Rating (U)", "setting": "[1]; [12]", "result": 0}, {"measurement": "Retardation Rating (R)", "setting": "[1]; [13]", "result": "3 (3 = 41-60% retardation)"}, {"measurement": "Uniformity Rating (U)", "setting": "[1]; [13]", "result": 3}, {"measurement": "Retardation Rating (R)", "setting": "[1]; [14]", "result": "3 (3 = 41-60% retardation)"}, {"measurement": "Uniformity Rating (U)", "setting": "[1]; [14]", "result": 3}, {"measurement": "Retardation Rating (R)", "setting": "[1]; [15]", "result": "3 (3 = 41-60% retardation)"}, {"measurement": "Uniformity Rating (U)", "setting": "[1]; [15]", "result": 3}, {"measurement": "Retardation Rating (R)", "setting": "[1]; [16]", "result": "5 (5 = 81-100% retardation)"}, {"measurement": "Uniformity Rating (U)", "setting": "[1]; [16]", "result": 4}, {"measurement": "Retardation Rating (R)", "setting": "[1]; [17]", "result": "5 (5 = 81-100% retardation)"}, {"measurement": "Uniformity Rating (U)", "setting": "[1]; [17]", "result": 5}, {"measurement": "Retardation Rating (R)", "setting": "[1]; [18]", "result": "4 (4 = 61-80% retardation)"}, {"measurement": "Uniformity Rating (U)", "setting": "[1]; [18]", "result": 5}, {"measurement": "Retardation Rating (R)", "setting": "[1]; [19]", "result": "5 (5 = 81-100% retardation)"}, {"measurement": "Uniformity Rating (U)", "setting": "[1]; [19]", "result": 4}, {"measurement": "Retardation Rating (R)", "setting": "[1]; [20]", "result": "4 (4 = 61-80% retardation)"}, {"measurement": "Uniformity Rating (U)", "setting": "[1]; [20]", "result": 4}, {"measurement": "Retardation Rating (R)", "setting": "[1]; [21]", "result": "4 (4 = 61-80% retardation)"}, {"measurement": "Uniformity Rating (U)", "setting": "[1]; [21]", "result": 4}, {"measurement": "Retardation Rating (R)", "setting": "[1]; [22]", "result": "3 (3 = 41-60% retardation)"}, {"measurement": "Uniformity Rating (U)", "setting": "[1]; [22]", "result": 3}, {"measurement": "Retardation Rating (R)", "setting": "[1]; [23]", "result": "3 (3 = 41-60% retardation)"}, {"measurement": "Uniformity Rating (U)", "setting": "[1]; [23]", "result": 3}, {"measurement": "µg in solution", "setting": "[2]; 0 hours", "result": 200, "unit": "µg"}, {"measurement": "kd (ratio of chemical bound to wood:chemical in solution)", "setting": "[2]; 0.5 hours", "result": 0.7}, {"measurement": "µg in solution", "setting": "[2]; 0.5 hours", "result": 116, "unit": "µg"}, {"measurement": "kd (ratio of chemical bound to wood:chemical in solution)", "setting": "[2]; 1 hour", "result": 1.4}, {"measurement": "µg in solution", "setting": "[2]; 1 hour", "result": 84, "unit": "µg"}, {"measurement": "kd (ratio of chemical bound to wood:chemical in solution)", "setting": "[2]; 2 hours", "result": 1.5}, {"measurement": "µg in solution", "setting": "[2]; 2 hours", "result": 81, "unit": "µg"}, {"measurement": "kd (ratio of chemical bound to wood:chemical in solution)", "setting": "[2]; 4 hours", "result": 1.7}, {"measurement": "µg in solution", "setting": "[2]; 4 hours", "result": 75, "unit": "µg"}, {"measurement": "kd (ratio of chemical bound to wood:chemical in solution)", "setting": "[2]; 8 hours", "result": 1.8}, {"measurement": "µg in solution", "setting": "[2]; 8 hours", "result": 72, "unit": "µg"}, {"measurement": "kd (ratio of chemical bound to wood:chemical in solution)", "setting": "[2]; 24 hours", "result": 1.7}, {"measurement": "µg in solution", "setting": "[2]; 24 hours", "result": 74, "unit": "µg"}, {"measurement": "kd (ratio of chemical bound to wood:chemical in solution)", "setting": "[2]; 48 hours", "result": 1.8}, {"measurement": "µg in solution", "setting": "[2]; 48 hours", "result": 76, "unit": "µg"}, {"measurement": "Retardation Rating (R)", "setting": "[3]; [24]", "result": "4 (4 = 61-80% retardation)"}, {"measurement": "Uniformity Rating (U)", "setting": "[3]; [24]", "result": 3}, {"measurement": "Retardation Rating (R)", "setting": "[3]; [25]", "result": "4 (4 = 61-80% retardation)"}, {"measurement": "Uniformity Rating (U)", "setting": "[3]; [25]", "result": 4}, {"measurement": "Retardation Rating (R)", "setting": "[3]; [26]", "result": "5 (5 = 81-100% retardation)"}, {"measurement": "Uniformity Rating (U)", "setting": "[3]; [26]", "result": 5}, {"measurement": "Retardation Rating (R)", "setting": "[3]; [27]", "result": "4 (4 = 61-80% retardation)"}, {"measurement": "Uniformity Rating (U)", "setting": "[3]; [27]", "result": 4}]}
